Assay results taken from US5202348A, “Thiarubrine antifungal agents” (The University of British Columbia, priority 1990, dated 1993).
Values after ≈ are worked out from the molar mass of the structure shown.

Experiments:
C. albicans [1] = assay: Influence of exposure of ThD for two hrs. to different pH (LC50 on C. albicans); assay type: cell-based; conditions: Candida albicans, two hrs. in sodium phosphate buffer
From the text: (§1) Data on degradation of Thiarubrine D (ThD) expressed as changes of concentration required to inhibit growth of C. albicans in 50% during 24 hrs. exposure (Lc50 24 hrs.).

C. albicans [2] = assay: Doses of ThD required to inhibit different numbers of C. albicans cells; assay type: cell-based; conditions: Candida albicans, read-out: LC50 (the source's name)
C. albicans [3] = assay: Temperature and time dependent degradation of ThD in water solution (LC50 on C. albicans); assay type: cell-based; conditions: Candida albicans
From the text: as §1

[4] = Growth inhibition of 3T3 during 24 hours exposure; assay type: cell-based, Mouse; conditions: mouse, 3t3 cells; Table 2; read-out: Toxicity Index, LC50 3T3 / LC50 C. albicans
Experimental: (§2) 3T3 = Mouse fibroblasts
(§3) Doses inhibiting growth in 50% were estimated by plotting concentration o
(§4) a logarithmic scale and percent of growth inhibition for 24 hours exposur
(§5) on a probability scale.

3T3 = assay: Growth inhibition of 3T3 during 24 hours exposure; assay type: cell-based, Mouse; conditions: Mus musculus, NIH3T3; 24 hours exposure; Table 1; read-out: Concentration causing 50% growth inhibition
Experimental: as §2, §3, §4, §5

C. albicans [5] = assay: LC50 (24 hrs.), doses required to inhibit growth in 50%, different method; assay type: cell-based, Candida albicans
From the text: Doses Required to Inhibit Growth of C. albicans
in 50% During 24 hrs. (ng/ml)

[6] = system: Candida albicans, Aspergillus fumigatus and Cryptococcus neoformans; assay: Antifungal activity (general statement); assay type: cell-based; conditions: extremely low concentrations
P. aeruginosa [7] = assay: Growth inhibition of P. aeruginosa during 24 hours exposure; assay type: cell-based, Pseudomonas aeruginosa; conditions: Pseudomonas aeruginosa; 24 hours exposure; Table 4; read-out: Minimal concentration causing 50% growth inhibition
Experimental: as §3, §4, §5

P. aeruginosa [8] = assay: as above; assay type: cell-based, Pseudomonas aeruginosa; conditions: Pseudomonas aeruginosa, Table 3, read-out: Minimal concentration causing 100% growth inhibition
C. albicans [9] = assay: Growth inhibition of C. albicans during 24 hours exposure; assay type: cell-based, Candida albicans; conditions: Candida albicans; 24 hours exposure; Table 3; read-out: Minimal concentration causing 100% growth inhibition
C. albicans [10] = assay: Degradation of ThD under exposure to bench cool white light (LC50 on C. albicans); assay type: cell-based; conditions: Candida albicans
From the text: as §1

bacteria = assay: Anti-bacterial activity (summary); assay type: cell-based; conditions: Table 14
C. albicans [11] = assay: Growth inhibition of C. albicans during 24 hours exposure; assay type: cell-based, Candida albicans; conditions: Candida albicans, 24 hours exposure
Experimental: as §3, §4, §5

Acinetobacter = assay: Minimal inhibitory concentration, agar dilution method; assay type: cell-based
Experimental: (§6) Results were obtained by agar dilution method. Mueller Hinton agar plates (pH - 7.4) with different doses of ThD were inoculated with 10^4 cfu/spot and incubated 21 hours at 34°. MIC is the lowest concentration with no growth.

Candida = assay: as above; assay type: cell-based; conditions: 21 h
Experimental: as §6

Klebsiella sp. = assay: as above; assay type: cell-based; conditions: 21 h, No. 31
Experimental: as §6

Enterococcus faecalis = assay: as above; assay type: cell-based; conditions: 21 h
Experimental: as §6

Structure (SMILES): CC#CC1=CC=C(C#CC#CC2CO2)SS1 (centres unmarked) [Thiarubrine D]
- IC50 (C. albicans [1]; pH 5): 0.04 µg/mL (≈ 0.164 µM)
- IC50 (C. albicans [1]; pH 6): 0.034 µg/mL (≈ 0.139 µM)
- IC50 (C. albicans [1]; pH 7): 0.02 µg/mL (≈ 0.0819 µM)
- IC50 (C. albicans [1]; pH 8): 0.052 µg/mL (≈ 0.213 µM)
- IC50 (C. albicans [2]; cell density 10^4 /ml): 0.007 µg/mL (≈ 0.0286 µM)
- IC50 (C. albicans [2]; cell density 10^5 /ml): 0.016 µg/mL (≈ 0.0655 µM)
- IC50 (C. albicans [2]; cell density 10^6 /ml): 0.042 µg/mL (≈ 0.172 µM)
- IC50 (C. albicans [3]; 0 hrs., 37° C., read-out: LC50 24 Hrs.): 0.007 µg/mL (≈ 0.0286 µM)
- IC50 (C. albicans [3]; 0 hrs., room temperature, read-out: LC50 24 Hrs.): 0.007 µg/mL (≈ 0.0286 µM)
- IC50 (C. albicans [3]; 0.5 hrs., 37° C., read-out: LC50 24 Hrs.): 0.02 µg/mL (≈ 0.0819 µM)
- IC50 (C. albicans [3]; 0.5 hrs., room temperature, read-out: LC50 24 Hrs.): 0.016 µg/mL (≈ 0.0655 µM)
- IC50 (C. albicans [3]; 2 hrs., 37° C., read-out: LC50 24 Hrs.): 0.033 µg/mL (≈ 0.135 µM)
- IC50 (C. albicans [3]; 2 hrs., room temperature, read-out: LC50 24 Hrs.): 0.022 µg/mL (≈ 0.09 µM)
- IC50 (C. albicans [3]; 6 hrs., 37° C., read-out: LC50 24 Hrs.): 0.085 µg/mL (≈ 0.348 µM)
- IC50 (C. albicans [3]; 6 hrs., room temperature, read-out: LC50 24 Hrs.): 0.042 µg/mL (≈ 0.172 µM)
- IC50 (C. albicans [3]; 24 h, 37° C.): 0.21 µg/mL (≈ 0.859 µM)
- IC50 (C. albicans [3]; 24 h, room temperature): 0.11 µg/mL (≈ 0.45 µM)
- selectivity ratio at 24 h [4]: 800
- IC50 (3T3): 0.48 µg/mL (≈ 1.96 µM)
- Inhibition of growth of Candida albicans (C. albicans [5]): nanogram/ml range
- IC50 (C. albicans [5]; Candida albicans, 24 hrs., Table 7, read-out: LC50 (24 hrs.), dose required to inhibit growth in 50%): 0.007 µg/mL (≈ 0.0286 µM)
- Antifungal activity [6]: very high antifungal activity
- IC50 (P. aeruginosa [7]): 0.21 µg/mL (≈ 0.859 µM)
- MIC (P. aeruginosa [8]): 0.625 µg/mL (≈ 2.56 µM)
- MIC (C. albicans [9]): 0.0024 µg/mL (≈ 0.00982 µM)
- IC50 (C. albicans [10]; 0 mins. exposure to bench cool white light, read-out: LC50 (24 hrs.)): 0.007 µg/mL (≈ 0.0286 µM)
- IC50 (C. albicans [10]; 5 mins. exposure to bench cool white light, read-out: LC50 (24 hrs.)): 0.012 µg/mL (≈ 0.0491 µM)
- IC50 (C. albicans [10]; 15 mins. exposure to bench cool white light, read-out: LC50 (24 hrs.)): 0.026 µg/mL (≈ 0.106 µM)
- IC50 (C. albicans [10]; 0.5 hrs. exposure to bench cool white light, read-out: LC50 (24 hrs.)): 0.14 µg/mL (≈ 0.573 µM)
- IC50 (C. albicans [10]; 24 h, read-out: LC50 (24 hrs.), 24 hrs. exposure to bench cool white light): 5 µg/mL (≈ 20.5 µM)
- IC50 (C. albicans [10]; read-out: LC50 (24 hrs.), 6 hrs. exposure to bench cool white light): 5 µg/mL (≈ 20.5 µM)
- Anti-bacterial (bacteria): Y
- IC50 (C. albicans [11]; Table 1, read-out: Concentration causing 50% growth inhibition): 0.0006 µg/mL (≈ 0.00246 µM)
- IC50 (C. albicans [11]; Table 4, read-out: Minimal concentration causing 50% growth inhibition): 0.0006 µg/mL (≈ 0.00246 µM)
- MIC (Acinetobacter; Acinetobacter, 21 h, No. 17, strain C42): 1 µg/mL (≈ 4.09 µM)
- Minimal Inhibitory Concentration (Acinetobacter; No. 18, strain 6C10): 1,000 ng/ml
- MIC (Candida; No. 22, strain 01): 0.016 µg/mL (≈ 0.0655 µM)
- MIC (Candida; No. 23, strain 02): 0.016 µg/mL (≈ 0.0655 µM)
- MIC (Candida; No. 24, strain 03): 0.064 µg/mL (≈ 0.262 µM)
- MIC (Candida; No. 25, strain R4197): 0.016 µg/mL (≈ 0.0655 µM)
- MIC (Candida; No. 32, strain F617): 0.008 µg/mL (≈ 0.0327 µM)
- MIC (Klebsiella sp.): 1 µg/mL (≈ 4.09 µM)
- MIC (Enterococcus faecalis; No. 30, strain 1A3): 10 µg/mL (≈ 40.9 µM)
- MIC (Enterococcus faecalis; No. 35, strain 207): 1 µg/mL (≈ 4.09 µM)
